Experimental data reported in patent US20100324282A1, “METHOD FOR SEPARATING HETEROPOLYACID” (TOYOTA JIDOSHA KABUSHIKI KAISHA, priority 2009, published 2010).

Experiments:
Assay type in all cases: physicochemical
[1] = Heating reaction test with saturated aqueous solution of phosphotungstic acid: distribution of phosphotungstic acid; details: saturated aqueous solution of phosphotungstic acid triacontahydrate 30 g + glucose 5 g, heated
Protocol: (§1) A saturated aqueous solution containing 30 g of phosphotungstic acid triacontahydrate was mixed with 5 g of glucose, the mixture was heated, and various types of the selected organic solvents were then added thereto in amounts 3 times greater than the minimal amount of the solvent necessary to dissolve phosphotungstic acid (by volume). The resultant was stirred and allowed to stand, followed by phase separation. Samples were dried using a centrifuge, the phosphotungstic acid content in the dried specimens was analyzed by the ICP mass spectrometer, and glucose content was assayed via liquid chromatography.

[2] = Heating reaction test with phosphotungstic acid triacontahydrate: distribution of glucose; details: phosphotungstic acid triacontahydrate 30 g + glucose 5 g, heated
Protocol: (§2) Phosphotungstic acid triacontahydrate (30 g) was mixed with glucose (5 g), the resultant was heated, and various types of the selected organic solvents were added in amounts 3 times greater than the minimal amount of the solvent necessary to dissolve phosphotungstic acid (by volume). The resultant was stirred and allowed to stand, followed by phase separation. The samples were dried using a centrifuge, the phosphotungstic acid content in the dried specimens was analyzed by the ICP mass spectrometer, and glucose content was assayed via liquid chromatography.

[3] = Distribution ratio of phosphotungstic acid to organic solvent and water (powdery phosphotungstic acid); details: ICP
Protocol: The resultant was stirred and allowed to stand, followed by phase separation. Samples were obtained from each phase in an amount of 1 ml and the samples were dried using a centrifuge. The dried specimens were analyzed by the inductively coupled plasma (ICP) mass spectrometer. Water was dissolved in each phase in order to identify an aqueous phase.

[4] = Distribution ratio of phosphotungstic acid to organic solvent and water (saturated aqueous solution of phosphotungstic acid); details: ICP
Protocol: The resultant was stirred and allowed to stand, followed by phase separation. Samples were obtained from each phase in an amount of 1 ml and the samples were dried using a centrifuge. The dried specimens were analyzed by the ICP mass spectrometer. Water was dissolved in each phase in order to identify an aqueous phase.

[5] = Heating reaction test with phosphotungstic acid triacontahydrate: distribution of phosphotungstic acid; details: phosphotungstic acid triacontahydrate 30 g + glucose 5 g, heated
Protocol: as §2

[6] = Heating reaction test with saturated aqueous solution of phosphotungstic acid: distribution of glucose; details: saturated aqueous solution of phosphotungstic acid triacontahydrate 30 g + glucose 5 g, heated
Protocol: as §1

[7] = Assay of solubility of phosphotungstic acid in organic solvent; details: in the listed organic solvent, room temperature
Protocol: Phosphotungstic acid was added to an organic solvent at room temperature. Phosphotungstic acid was continuously added until it was not able to dissolve therein, and solubility was determined based on the entire amount of phosphotungstic acid added.

[8] = Assay of solubility of glucose in organic solvent; details: in the listed organic solvent, room temperature
Protocol: Glucose was added to an organic solvent at room temperature. Glucose was continuously added until it was not able to dissolve therein, and solubility was determined based on the entire amount of glucose added.

[9] = Assay of distribution ratio of glucose (saturated aqueous solution of phosphotungstic acid)
Protocol: n-Butyl ethyl ether (26.67 ml) was added to a saturated aqueous solution containing 30 g of phosphotungstic acid. The resultant was stirred and allowed to stand, followed by phase separation. Glucose was continuously added until glucose was not able to dissolve in each phase. Solubility of glucose in n-butyl ethyl ether was determined based on the amount of glucose dissolved.

| Compound | Distribution ratio of phosphotungstic acid (based on tungsten) (%) ([1]; First phase) | Distribution ratio of phosphotungstic acid (based on tungsten) (%) ([1]; Second phase (aqueous phase)) | Distribution ratio of glucose (%) ([2]; Second phase (aqueous phase)) | Distribution ratio of phosphotungstic acid (based on tungsten) (%) ([3]; First phase (from top)) | Distribution ratio of phosphotungstic acid (based on tungsten) (%) ([3]; Second phase (from top)) | Distribution ratio of phosphotungstic acid (based on tungsten) (%) ([4]; First phase (from top)) | Distribution ratio of phosphotungstic acid (based on tungsten) (%) ([4]; Second phase (from top)) | Distribution ratio of phosphotungstic acid (based on tungsten) (%) ([4]; Third phase (from top)) | Distribution ratio of phosphotungstic acid (based on tungsten) (%) ([5]; First phase) | Distribution ratio of phosphotungstic acid (based on tungsten) (%) ([5]; Second phase (aqueous phase)) | Distribution ratio of glucose (%) ([6]; First phase) | Distribution ratio of glucose (%) ([6]; Second phase (aqueous phase)) | Solubility of phosphotungstic acid (wt %) [7] [wt %] | Solubility of glucose (wt %) [8] [wt %] | Distribution ratio of phosphotungstic acid (based on tungsten) (%) ([1]; Third phase) | Distribution ratio of glucose (%) ([2]; Third phase) | Distribution ratio of phosphotungstic acid (based on tungsten) (%) ([3]; Third phase (from top)) | Distribution ratio of phosphotungstic acid (based on tungsten) (%) ([5]; Third phase) | Distribution ratio of glucose (%) ([6]; Third phase) | other results |
| --- | --- | --- | --- | --- | --- | --- | --- | --- | --- | --- | --- | --- | --- | --- | --- | --- | --- | --- | --- | --- |
| CCCCCCCCO [1-Octanol] | 96.8 | 3.2 | 100 | 97.7 | 2.3 | 1.3 | 97.3 | 1.4 | 96.9 | 3.1 | 0 | 100 | 200 | <0.045 |  |  |  |  |  |  |
| CCCCCCC(C)O (stereo not shown) [2-Octanol] | 98.1 | 1.9 | 100 | 97.9 | 2.1 | 1.0 | 97.7 | 1.3 | 98.3 | 1.7 | 0.8 | 99.2 | 200 | <0.043 |  |  |  |  |  |  |
| CCOCC [Diethyl ether] | 0.04 | 1.6 | 100 | 0.01 | 99.4 | 0.01 | 1.5 | 98.5 | 0.03 | 1.7 | 0 | 100 | >229.3 | <0.025 | 98.3 | 0 | 0.6 | 98.3 | 0 | Distribution ratio of glucose (%) ([2]; First phase): 0% |
| CCCCOCC [n-Butyl ethyl ether] | 0.1 | 8.9 | 100 | 0.1 | 2.9 | 0.1 | 5.1 | 94.8 | 0.1 | 10.2 |  | 100 | 300 | <0.03 | 91.0 | 0 | 97.0 | 89.7 | 0 | Distribution ratio of phosphotungstic acid (based on tungsten) (%) ([3]; Third phase (from top), listed as n-butyl ethyl ether): 97%; Distribution ratio of glucose (%) ([9]; First phase): 0.1%; Distribution ratio of glucose (%) ([9]; Second phase (aqueous)): 97.7%; Distribution ratio of glucose (%) ([9]; Third phase): 2.2% |
